Assay: Henry solubility constant Hcp at 310 K (mol/(m3 Pa))
Conditions: reference: van Ruth et al. (2001)

CCCCCCC(C)=O [2-octanone]
Henry solubility constant Hcp at 310 K: 0.018

CCCCCCCC(C)O (stereo not given) [2-nonanol]
Henry solubility constant Hcp at 310 K: 0.069

CCCOC(C)=O [propyl ethanoate]
Henry solubility constant Hcp at 310 K: 0.018

CCCO [1-propanol]
Henry solubility constant Hcp at 310 K: 0.65

CCCCCCCCC(C)=O [2-decanone]
Henry solubility constant Hcp at 310 K: 0.015

CCOC(C)=O [ethyl ethanoate]
Henry solubility constant Hcp at 310 K: 0.03

CCCCCCCC=O [octanal]
Henry solubility constant Hcp at 310 K: 0.0088

CC(C)CCO [3-methyl-1-butanol]
Henry solubility constant Hcp at 310 K: 0.32

CSC [dimethyl sulfide]
Henry solubility constant Hcp at 310 K: 0.0049

CCCC(C)O (stereo not given) [2-pentanol]
Henry solubility constant Hcp at 310 K: 0.23

CCCCCCC=O [heptanal]
Henry solubility constant Hcp at 310 K: 0.011

CCCCCCO [1-hexanol]
Henry solubility constant Hcp at 310 K: 0.16

CCCCOC(C)=O [butyl ethanoate]
Henry solubility constant Hcp at 310 K: 0.017

CCCC(=O)OCC [ethyl butanoate]
Henry solubility constant Hcp at 310 K: 0.016

CCCCCC(C)=O [2-heptanone]
Henry solubility constant Hcp at 310 K: 0.025

— Sander's compilation of Henry's law constants (doi:10.1021/jf001510f)
